How the values were obtained:
Type in all cases: biochemical
ApN = target: T1, ApN (Arthrobacter pascens, UniProt E1CJF8); test: GC-FID of ADPN consumed; settings: 50 mM ADPN, pH 7.5, 50 mM potassium phosphate, 35 °C, 30 min
T1 construct: gene inhB; full-length, pET-28b(+), His-tag (Ni-NTA), E. coli BL21(DE3)
T1 sequence (E1CJF8 1-359): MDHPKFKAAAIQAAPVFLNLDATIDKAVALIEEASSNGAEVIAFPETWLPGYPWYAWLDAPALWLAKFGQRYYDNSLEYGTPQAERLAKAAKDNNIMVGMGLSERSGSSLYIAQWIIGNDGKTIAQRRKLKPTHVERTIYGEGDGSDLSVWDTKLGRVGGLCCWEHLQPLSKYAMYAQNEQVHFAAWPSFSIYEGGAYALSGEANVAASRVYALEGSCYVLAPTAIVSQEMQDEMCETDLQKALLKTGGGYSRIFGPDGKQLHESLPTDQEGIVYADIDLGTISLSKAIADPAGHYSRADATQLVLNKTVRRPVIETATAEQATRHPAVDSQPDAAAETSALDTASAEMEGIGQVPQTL

TpN = target: T2, TpN (Thalassiosira pseudonana, UniProt B8C1M9); test: GC-FID of ADPN consumed; settings: 50 mM ADPN, pH 7.5, 50 mM potassium phosphate, 35 °C, 30 min
T2 construct: gene NIT2; full-length, pET-28b(+), His-tag (Ni-NTA), E. coli BL21(DE3)

GpN = target: T3, GpN (Aeribacillus pallidus, UniProt Q0PIV8); test: GC-FID of ADPN consumed; settings: pH […] potassium phosphate, […] °C, […] min
T3 construct: full-length, pET-28b(+), His-tag (Ni-NTA), E. coli BL21(DE3)
T3 sequence (Q0PIV8 1-323): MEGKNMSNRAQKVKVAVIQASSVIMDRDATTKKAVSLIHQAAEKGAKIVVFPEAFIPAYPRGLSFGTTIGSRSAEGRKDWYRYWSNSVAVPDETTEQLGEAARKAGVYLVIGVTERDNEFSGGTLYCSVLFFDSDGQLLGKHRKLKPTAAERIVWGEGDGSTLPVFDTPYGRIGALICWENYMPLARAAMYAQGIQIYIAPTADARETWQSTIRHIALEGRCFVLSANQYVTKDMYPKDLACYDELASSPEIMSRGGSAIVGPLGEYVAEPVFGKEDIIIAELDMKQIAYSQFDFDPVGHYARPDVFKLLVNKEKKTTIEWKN

RjN = target: T4, RjN (Rhodococcus rhodochrous, UniProt Q03217); test: GC-FID of ADPN consumed; settings: 50 mM ADPN, pH 7.5, 50 mM potassium phosphate, 35 °C, 30 min
T4 construct: gene nitA; full-length, pET-28b(+), His-tag (Ni-NTA), E. coli BL21(DE3)
T4 sequence (Q03217 1-366 limits assumed): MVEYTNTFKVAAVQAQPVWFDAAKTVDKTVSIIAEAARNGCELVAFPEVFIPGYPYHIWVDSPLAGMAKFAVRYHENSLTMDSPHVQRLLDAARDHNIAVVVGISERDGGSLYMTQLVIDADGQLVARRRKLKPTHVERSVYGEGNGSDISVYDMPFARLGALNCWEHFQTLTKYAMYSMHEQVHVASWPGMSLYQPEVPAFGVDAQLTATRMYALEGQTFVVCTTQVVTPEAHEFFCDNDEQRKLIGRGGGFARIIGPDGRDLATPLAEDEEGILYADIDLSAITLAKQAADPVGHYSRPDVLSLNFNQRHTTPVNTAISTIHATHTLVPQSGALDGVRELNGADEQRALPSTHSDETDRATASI

AcN = target: T5, AcN (Acidovorax facilis, UniProt Q1W2L4); test: initial velocity, HPLC, Michaelis-Menten fit; settings: pH 7.5, 50 mM potassium phosphate, 35 °C; unit printed as mM^−1 (mM meant); 10.5–262.5 mM substrate
T5 construct: gene nitA; full-length, pET-28b(+), His-tag (Ni-NTA), E. coli BL21(DE3); synthesised gene
Text: initial velocity, HPLC, Michaelis-Menten fit on AcN

| Compound | GC-FID of ADPN consumed (ApN) | GC-FID of ADPN consumed (TpN) | GC-FID of ADPN consumed (GpN) | GC-FID of ADPN consumed (RjN) | Km mM^-1 (AcN) [mM⁻¹] |
| --- | --- | --- | --- | --- | --- |
| N#CCCCCC#N [adiponitrile] | All nitrilases demonstrated ADPN hydrolysis activity | All nitrilases demonstrated ADPN hydrolysis activity | All nitrilases demonstrated ADPN hydrolysis activity | All nitrilases demonstrated ADPN hydrolysis activity | – |
| N#CCNCC#N [iminodiacetonitrile] | – | – | – | – | 0.76 ± 0.02 |
